Data from patent US10072006B2 (MUTABILIS, priority 2015, dated 2018).
≈ marks a conversion by molar mass, not a printed value.

Columns and labels:
CTX-M-15 = target: T1, CTX-M-15 (Escherichia coli, UniProt Q9EXV5); test: β-lactamase inhibitory activity, determination of IC50 (nitrocefin hydrolysis); type: biochemical
T1 construct: made in house; host or cells: E. coli

KPC-2 = target: T2, KPC-2 (Klebsiella pneumoniae, UniProt Q9F663); test: as above; type: biochemical
T2 construct: made in house; host or cells: E. coli

OXA-11 = target: T3, OXA-11 (Pseudomonas aeruginosa, UniProt Q06778); test: as above; type: biochemical
T3 construct: made in house; host or cells: E. coli

[1] = test system: E. coli 190317 (TEM-1, SHV-12, CTX-M-15, OXA-1); test: microbe, parasite or virus in culture; type: cell-based; conditions: for MIC: Escherichia coli, 18 h, read-out: MIC compounds of the invention alone; for MIC, combination of CAZ and compounds of the invention: MIC of ceftazidime with compound fixed at 4 μg/mL, strain 190317 (E. coli)
Description: (§1) Briefly, compounds alone according to the invention were prepared in DMSO and spotted (2 μL each) on sterile polystyrene plates (Corning, 3788). […] Microplates were incubated for 16-20 h at 35° C. in ambient air. The MIC of the compounds was defined as the lowest concentration of said compounds that prevented bacterial growth as read by visual inspection.

TEM-1 = target: T4, TEM-1 (Escherichia coli, UniProt P62593); test: β-lactamase inhibitory activity, determination of IC50 (nitrocefin hydrolysis); type: biochemical; conditions: class (A), 30 min pre-incubation
T4 construct: made in house; host or cells: E. coli

OXA-15 = target: T5, OXA-15 (Pseudomonas aeruginosa, UniProt Q51574); test: as above; type: biochemical
T5 construct: made in house; host or cells: E. coli

OXA-48 = target: T6, OXA-48 (Klebsiella pneumoniae, UniProt Q6XEC0); test: as above; type: biochemical
T6 construct: made in house; host or cells: E. coli

SHV-1 = target: T7, SHV-1 (Klebsiella pneumoniae, UniProt P0AD64); test: as above; type: biochemical
T7 construct: made in house; host or cells: E. coli

[2] = test system: P. aeruginosa CIP107051 (TEM-24); test: MIC of compounds and synergy with ceftazidime (broth microdilution); type: cell-based; conditions: strain CIP107051 (P. aeruginosa)
Description: as §1

[3] = test system: K. pneumoniae BAA-1898 (TEM-1, SHV-11, SHV-12, KPC-2); test: as above; type: cell-based; conditions: strain BAA-1898 (K. pneumoniae)
Description: as §1

[4] = test system: P. aeruginosa UFR47 (VIM-1); test: as above; type: cell-based; conditions: MIC of ceftazidime with compound fixed at 4 μg/mL; strain UFR47 (P. aeruginosa)
Description: as §1

[5] = test system: P. aeruginosa UFR48 (VIM-2); test: as above; type: cell-based; conditions: MIC of ceftazidime with compound fixed at 4 μg/mL; strain UFR48 (P. aeruginosa)
Description: as §1

[6] = test system: P. aeruginosa UFR90 (Derepressed ampC, OprD-); test: as above; type: cell-based; conditions: for MIC, combination of CAZ and compounds of the invention: MIC of ceftazidime with compound fixed at 4 μg/mL, strain UFR90 (P. aeruginosa)
Description: as §1

[7] = test system: P. aeruginosa UFR93 (Derepressed ampC, OprD-, MexAB+, MexXY+); test: as above; type: cell-based; conditions: for MIC, combination of CAZ and compounds of the invention: MIC of ceftazidime with compound fixed at 4 μg/mL, strain UFR93 (P. aeruginosa)
Description: as §1

[8] = test system: E. coli 131119 (TEM-1, OXA-48); test: as above; type: cell-based; conditions: Escherichia coli, 18 h; strain 131119 (E. coli); read-out: MIC compounds of the invention alone
Description: as §1

[9] = test system: P. aeruginosa UFR35 (OXA-23); test: as above; type: cell-based; conditions: MIC of ceftazidime with compound fixed at 4 μg/mL; strain UFR35 (P. aeruginosa)
Description: as §1

E. coli RGN238 (OXA-1) = test: as above; type: cell-based; conditions: Escherichia coli, 18 h; strain RGN238 (E. coli); read-out: MIC compounds of the invention alone
Description: as §1

[10] = test system: E. cloacae P99 (Derepressed ampC); test: as above; type: cell-based; conditions: strain P99 (E. cloacae)
Description: as §1

[11] = test system: P. aeruginosa CIP105250 (OXA-15); test: as above; type: cell-based; conditions: strain CIP105250 (P. aeruginosa)
Description: as §1

[12] = test system: K. pneumoniae 6299 (TEM-1, SHV-11, OXA-163); test: as above; type: cell-based; conditions: strain 6299 (K. pneumoniae)
Description: as §1

[13] = test system: P. aeruginosa UFR59 (IMP-29); test: as above; type: cell-based; conditions: MIC of ceftazidime with compound fixed at 4 μg/mL; strain UFR59 (P. aeruginosa)
Description: as §1

[14] = test system: P. aeruginosa UFR92 (Derepressed ampC, OprD-); test: as above; type: cell-based; conditions: for MIC, combination of CAZ and compounds of the invention: MIC of ceftazidime with compound fixed at 4 μg/mL, strain UFR92 (P. aeruginosa)
Description: as §1

OXA-1 = target: T8, OXA-1 (Escherichia coli, UniProt P13661); test: β-lactamase inhibitory activity, determination of IC50 (nitrocefin hydrolysis); type: biochemical
T8 construct: made in house; host or cells: E. coli

AmpC (P99) = AmpC (P99) (Enterobacter cloacae, UniProt P05364); test: biochemical
AmpC (PAE) = AmpC (PAE) (Pseudomonas aeruginosa, UniProt P24735); test: biochemical
[15] = test system: K. oxytoca UFR21 (TEM-1, CTX-M-15, OXA-48); test: microbe, parasite or virus in culture; type: cell-based
[16] = test system: K. pneumoniae UFR68 (TEM-1, SHV-11, CTX-M-15, KPC-3); test: microbe, parasite or virus in culture; type: cell-based
[17] = test system: K. pneumoniae 200047 (TEM-1, SHV-32, CTX-M-15, OXA-1); test: microbe, parasite or virus in culture; type: cell-based
[18] = test system: K. pneumoniae 160143 (TEM-1, SHV-1, CTX-M-15, KPC-2, OXA-1); test: microbe, parasite or virus in culture; type: cell-based
Description: as §1

[19] = test system: E. cloacae 260508 (TEM-1, CTX-M-15); test: microbe, parasite or virus in culture; type: cell-based
Description: as §1

[20] = test system: E. cloacae UFR70 (TEM-1, CTX-M-15, CMY-2, OXA-1, Porin loss); test: MIC of compounds and synergy with ceftazidime (broth microdilution); type: cell-based
Description: as §1

[21] = test system: E. cloacae UFR85 (TEM-1, CTX-M-15, derepressed ampC); test: microbe, parasite or virus in culture; type: cell-based
Description: […] […] Microplates were incubated for 16-20 h at 35° C. in ambient air. The MIC of the compounds was defined as the lowest concentration of said compounds that prevented bacterial growth as read by visual inspection.

[22] = MIC of ceftazidime with compound fixed at 4 μg/mL
[23] = Pseudomonas aeruginosa, 18 h, read-out: MIC compounds of the invention alone
[24] = Enterobacter cloacae, 18 h, read-out: MIC compounds of the invention alone
[25] = Klebsiella pneumoniae, 18 h, read-out: MIC compounds of the invention alone

Question: What does the source list for `Cn1cc(C2=C[C@@H](CN)N3C[C@@H]2N(OS(=O)(=O)O)C3=O)cnc1=O` (relative stereo) [Example 6]?
Answer: IC50 (CTX-M-15): 0.51 µM; IC50 (KPC-2): 5.1 µM; IC50 (OXA-11): 1.6 µM; MIC [1]: 0.125 µg/mL (≈ 0.35 µM); MIC, combination of CAZ and compounds of the invention [1]: <0.125 µg/mL; IC50 (TEM-1): 0.28 µM; IC50 (OXA-15): 0.068 µM; IC50 (OXA-48): 0.84 µM; IC50 (SHV-1): 0.34 µM; MIC, combination of CAZ and compounds of the invention [2, 22]: 32 µg/mL; MIC [2, 23]: 16 µg/mL; MIC ([3]; Klebsiella pneumoniae, BAA1898, read-out: MIC compounds of the invention alone): > 32 µg/mL; MIC, combination of CAZ and compounds of the invention [3, 22]: 4 µg/mL; MIC, combination of CAZ and compounds of the invention [4]: <0.25 µg/mL; MIC, combination of CAZ and compounds of the invention [5]: <0.25 µg/mL; MIC, combination of CAZ and compounds of the invention [6]: <0.25 µg/mL; MIC, combination of CAZ and compounds of the invention [7]: <0.25 µg/mL; MIC [8]: > 32 µg/mL; MIC, combination of CAZ and compounds of the invention [9]: <0.25 µg/mL; MIC (E. coli RGN238 (OXA-1)): > 32 µg/mL; MIC [10, 24]: 0.125 µg/mL; MIC, combination of CAZ and compounds of the invention [10, 22]: ≤0.125 µg/mL; MIC, combination of CAZ and compounds of the invention [11, 22]: 64 µg/mL; MIC [11, 23]: 32 µg/mL; MIC [12, 25]: > 32 µg/mL; MIC, combination of CAZ and compounds of the invention [12, 22]: 4 µg/mL; MIC, combination of CAZ and compounds of the invention [13]: <0.25 µg/mL; MIC, combination of CAZ and compounds of the invention [14]: <0.25 µg/mL; IC50 (OXA-1): 1.2 µM; IC50 (AmpC (P99)): 6.4 µM; IC50 (AmpC (PAE)): 38 µM

Question: For `NC[C@H]1C=C(c2cnco2)[C@@H]2CN1C(=O)N2OS(=O)(=O)[O-].O=C(O)C(F)(F)F.[Na+]` (relative stereo) [Example 1, Sodium and 2,2,2-trifluoroacetate [trans-2-(azaniumylmethyl)-4-oxazol-5-yl-7-oxo-1,6-diazabicyclo[3.2.1]oct-3-en-6-yl] sulfate], which MIC ([15]; Klebsiella oxytoca, 18 h, read-out: MIC compounds of the invention alone) is on record?
Answer: > 32 µg/mL

Question: What about the “MIC, combination of CAZ and compounds of the invention” value (“MIC, combination” below) ([15]; MIC of ceftazidime with compound fixed at 4 μg/mL, strain UFR21 (K. oxytoca)) of the same molecule?
Answer: 0.5 µg/mL

Question: And the MIC [16, 25]?
Answer: > 32 µg/mL

Question: What about the “MIC, combination” value ([16]; MIC of ceftazidime with compound fixed at 4 μg/mL, strain UFR68 (K. pneumoniae)) of the same molecule?
Answer: 1 µg/mL

Question: And the IC50 (CTX-M-15)?
Answer: 0.0054 µM

Question: And the MIC [17, 25]?
Answer: > 32 µg/mL

Question: What about the “MIC, combination” value ([17]; MIC of ceftazidime with compound fixed at 4 μg/mL, strain 200047 (K. pneumoniae)) of the same molecule?
Answer: 0.5 µg/mL

Question: What about the IC50 (KPC-2) of the same molecule?
Answer: 0.0078 µM

Question: And the IC50 (OXA-11)?
Answer: 0.0041 µM

Question: And the MIC [1]?
Answer: 0.031 µg/mL

Question: And the “MIC, combination” value [1]?
Answer: <0.25 µg/mL

Question: What about the MIC [18, 25] of the same molecule?
Answer: > 32 µg/mL

Question: And the “MIC, combination” value ([18]; MIC of ceftazidime with compound fixed at 4 μg/mL, strain 160143 (K. pneumoniae))?
Answer: 1 µg/mL

Question: And the MIC ([19]; Enterobacter cloacae, read-out: MIC compounds of the invention alone)?
Answer: 0.063 µg/mL

Question: And the “MIC, combination” value ([19]; MIC of ceftazidime with compound fixed at 4 μg/mL, strain 260508 (E. cloacae))?
Answer: ≤0.125 µg/mL

Question: What about the IC50 (OXA-15) of the same molecule?
Answer: 0.00065 µM

Question: And the IC50 (OXA-48)?
Answer: 0.00051 µM

Question: What about the IC50 (SHV-1) of the same molecule?
Answer: 0.0013 µM

Question: What about the “MIC, combination” value [6] of the same molecule?
Answer: <0.25 µg/mL

Question: What about the MIC [6, 23] of the same molecule?
Answer: 0.5 µg/mL

Question: And the “MIC, combination” value [7]?
Answer: <0.25 µg/mL

Question: What about the MIC [7, 23] of the same molecule?
Answer: 8 µg/mL

Question: And the MIC [20, 24]?
Answer: 16 µg/mL

Question: What about the “MIC, combination” value ([20]; MIC of ceftazidime with compound fixed at 4 μg/mL, strain UFR70 (E. cloacae)) of the same molecule?
Answer: 1 µg/mL

Question: And the “MIC, combination” value [14]?
Answer: <0.25 µg/mL

Question: And the MIC [14, 23]?
Answer: 2 µg/mL

Question: And the IC50 (OXA-1)?
Answer: 0.08 µM

Question: What about the MIC [21, 24] of the same molecule?
Answer: > 32 µg/mL

Question: What about the “MIC, combination” value ([21]; MIC of ceftazidime with compound fixed at 4 μg/mL, strain UFR85 (E. cloacae)) of the same molecule?
Answer: 2 µg/mL
